The subject of the assay is BT474 xenograft tumor. In words: Antitumor efficacy in BT474 xenograft tumor model. As to conditions: for tumor volume at day 30: 3 doses.
The mark [1] stands for this setting: PROTAC (ARV771) payload, 3 doses once a week.

Experimental: The antitumor efficacy was monitored thorough the measurement of tumor volume size.
We used the ABC platform for antibody targeted delivery of PROTAC to tumors for cancer therapy. We chose ARV771 as the payload. We used PROTAC-ABC (ABC_ARV771) to perform in vivo anti-cancer study. The HER2 overexpressed BT474 xenograft mice model was also used for this study. 6 different treatments were performed on mice bearing ˜50 mm^3 volume tumor. 3 doses for treatment were performed once a week.

In the case of `Cc1ncsc1-c1ccc([C@H](C)NC(=O)[C@@H]2C[C@@H](O)CN2C(=O)[C@@H](NC(=O)COCCCOCCNC(=O)C[C@@H]2N=C(c3ccc(Cl)cc3)c3c(sc(C)c3C)-n3c(C)nnc32)C(C)(C)C)cc1` [ARV771], under “PROTAC (ARV771) payload”, the “tumor volume at day 30” value is reported as “no therapeutic effects”. Besides, the tumor volume entry under setting [1] was “little therapeutic effects”.

With `Cc1sc2c(c1C)C(c1ccc(Cl)cc1)=N[C@@H](CC(=O)Nc1ccc(OCCOCCOCCOCCNc3cccc4c3C(=O)N(C3CCC(=O)NC3=O)C4=O)cc1)c1nnc(C)n1-2` (some centres unmarked) [ARV825], the “tumor volume at day 30” value (PROTAC (ARV771) payload) was “no therapeutic effects”. Besides, the tumor volume result under setting [1] is on record as “little therapeutic effects”.

Regarding ado-trastuzumab emtansine [ADC], under “one dose injection, comparison with Kadcyla”, the tumor volume result is given as “good anticancer efficiency”.

Values taken from patent publication US12084415B2, “Biomolecule-polymer-pharmaceutical agent conjugates for delivering the pharmaceutical agent” (Massachusetts Institute of Technology, priority 2021, dated 2024).
